Test results from PMC12186263, “Molecular Basis for Peptide Nitration by a Novel Cytochrome P450 Enzyme in RiPP Biosynthesis” (ACS Catalysis, 2025).
Square brackets hold non-standard residues; d marks the D form. Peptide text beside a SMILES is read from it. Nle = CCCC[C@H](N)C(=O)O

Columns and labels:
RufO [1] = target: T1, RufO (Streptomyces atratus, UniProt A0A224AU14); assay: X-band cw EPR of RufO with peptide; format: binding; conditions: 100 μM RufO, 2 mM peptide, 10 K; double-integrated intensities
T1 construct: made in house
T1 sequence (A0A224AU14 1-394): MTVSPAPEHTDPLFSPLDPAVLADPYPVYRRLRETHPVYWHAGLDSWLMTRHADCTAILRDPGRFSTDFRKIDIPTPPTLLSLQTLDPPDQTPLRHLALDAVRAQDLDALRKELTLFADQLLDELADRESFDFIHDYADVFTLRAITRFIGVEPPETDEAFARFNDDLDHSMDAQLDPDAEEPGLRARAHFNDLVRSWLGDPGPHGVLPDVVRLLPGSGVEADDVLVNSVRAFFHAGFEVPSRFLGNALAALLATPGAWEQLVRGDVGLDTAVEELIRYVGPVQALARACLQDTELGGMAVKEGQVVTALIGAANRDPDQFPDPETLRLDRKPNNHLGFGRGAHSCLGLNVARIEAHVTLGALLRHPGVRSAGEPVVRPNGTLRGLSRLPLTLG
Procedure: 3 Spectroscopic characterization of the RufO heme center with and without peptide substrates. (A) X-band continuous wave EPR spectra of RufO (black), RufO with 2 mM MRYLH (red), and RufO with 2 mM Nle-RYLH (blue), measured at 10 K and 1 mW microwave power. The minor species marked by asterisks likely arise from conformational heterogeneity of the heme center or a freezing artifact. (B) rR spectra of RufO (top), RufO with 2 mM MRYLH (middle), and RufO with 2 mM Nle-RYLH (bottom). The spectra were collected using a 405 nm excitation laser at 5 mW. (C) rR spectra of CO adducts of ferrous RufO (top) and ferrous RufO with 2 mM Nle-RYLH (bottom). Spectra were collected using a 442 nm excitation line at 1 mW. (D) Backbonding correlations between v(Fe–C) and v(C–O) stretching frequencies for various CYPs in the absence (squares) and presence (circles) of ligands. […]
EPR samples were prepared by mixing 100 μM RufO in the same buffer with 5% glycerol and either 2 mM MRYLH or Nle-RYLH, followed by flash-freezing in 4 mm quartz EPR tubes. […] Each sample was measured at 9.35 GHz microwave frequency at 10 K using 1 mW microwave power. All spectra were recorded with four averaged scans using an ER4119HS resonator at a modulation frequency of 100 kHz and a modulation amplitude of 0.4 mT. The conversion rate of the low-spin species was determined by comparing the double-integrated intensities of the signals. […]

RufO [2] = target: T1, RufO; assay: RufO nitration activity assay (HPLC); format: biochemical; conditions: 20 μM RufO, 1 mM peptide, SpFdX/SpFdR, pH 8.0, 25 °C, 30 min; highest rate set as 100%; triplicate
Procedure: Each assay was performed in triplicate and contained 20 μM CYP enzyme, 80 μM ferredoxin, 40 μM reductase, 1 mM substrate, 1 mM NADH/NADPH, 1 mM DEA NONOate (≥98%, Cayman Chemical), and 132 μL O2-saturated buffer (50 mM Tris, 100 mM NaCl at pH 8.0, bubbled for 30 min) for a final reaction volume of 200 μL. Reactions with CPR in place of the ferredoxin/reductase system contained 40 μM CPR. Reactions were incubated at 25 °C with shaking at 300 rpm for 30 min, then filtered using a 10 kDa cutoff centrifugal filter (Millipore) and analyzed by HPLC. Filtrate was analyzed on an InertSustain C18 column (5 μm particle size, 4.6 mm × 100 mm, GL Sciences Inc.) on a Thermo Fisher Scientific Ultimate-3000SD HPLC rapid separation system equipped with a photodiode array detector. The flow rate was set at 1 mL/min. For RufO assays, solvent A was water and solvent B was 90% acetonitrile (ACN) in water with 0.1% trifluoroacetic acid (TFA). A gradient of 0–70% solvent B was applied over 15 min. For collection of peptide product peaks for mass spectrometry analysis, TFA in solvent B was replaced with formic acid (FA). The method for TxtE assays used water with 0.1% FA as solvent A and ACN with 0.1% FA as solvent B. A gradient of 0–20% solvent B was applied over 10 min, followed by a 5 min hold at 20% solvent B. All presented traces were monitored at an absorbance wavelength of 280 nm. […]

RufO [3] = target: T1, RufO; assay: Isothermal titration calorimetry, peptide into RufO; format: binding; conditions: ITC, 20 °C, 190 μM RufO, 50 mM Tris-HCl, 100 mM NaCl pH 7.5, one set of sites, control subtracted
Procedure: ITC experiments were conducted at 20 °C using a MicroCal PEAQ-ITC instrument (Malvern Panalytical). RufO was prepared in a buffer containing 50 mM Tris-HCl and 100 mM NaCl at pH 7.5. The reference cell was filled with water. Each experiment involved 190 μM RufO in the sample cell, titrated with either 2.5 mM MRYLH or 2.8 mM Nle-RYLH in the syringe. Control experiments replaced the protein in the cell with buffer. The titration protocol included an initial 0.4 μL injection (excluded from analysis), followed by 19 injections of 2 μL at 2.5 min intervals. The cell was continuously stirred at 750 rpm. Data analysis was conducted using MicroCal PEAQ-ITC Analysis Software, with heats of dilution determined from the plateau region of the thermograms and subtracted from each integrated peak. All titrations are baseline corrected. The final integrated enthalpic changes were obtained by subtracting the controls from the protein-peptide titrations and fitted to a “one set of sites” binding model.

RufO [4] = target: T1, RufO; conditions: spectroscopic and structural analyses; ref number not given; cited from earlier work
From the text: Recent studies on a nitrating CYP have showcased collective efforts to uncover a novel enzymatic function in RiPP biosynthesis. Nitration is a biologically significant transformation that modifies the function, stability, and reactivity of proteins and other biomolecules. − While most biological nitration processes are known to proceed through less specific reactions involving peroxynitrite and other nitrative reactive species, , biocatalytic nitration is rare and underexplored. The first example was reported for TxtE in thaxtomin biosynthesis, which catalyzes the direct nitration of L-trypto ...

ferrous RufO = assay: Stopped-flow transient kinetics of O2 and •NO binding to ferrous RufO; conditions: for association rate constant k1: 3.3 μM ferrous RufO; for association rate constant k1 / dissociation rate constant k2 (y-intercept): pH 8.0, linear fit
Procedure: 5 Transient kinetics of ferrous RufO binding to O2 and ^•NO. Spectral changes following the rapid mixing of 3.3 μM ferrous RufO bound to MRYLH with (A) 18 μM O2 and (C) 70 μM ^•NO over 0.2 s. The black-to-red spectral transitions represent the formation of (A) a ferric-superoxo intermediate and (C) a ferrous-nitrosyl complex. Insets show the time-dependent absorbance changes at 438 nm (the most pronounced shift), fitted using single exponential equations to determine rate constants (red trace). Dependence of rate constant as a function of gas concentration on (B) O2 and (D) ^•NO binding to ferrous RufO alone (blue) and peptide-bound RufO (red). Second-order rate constants were determined through linear fitting. TEXT PRINTED IN THE PICTURE: (A) + O2: kobs = 74.3 s^-1 | (B) RufO alone: k1 = 3.55 μM^-1 s^-1 | (B) peptide-bound: k1 = 3.83 μM^-1 s^-1 | (C) + •NO: kobs = 107.4 s^-1 | (D) RufO alone: k1 = 4.12 μM^-1 s^-1 | (D) peptide-bound: k1 = 2.35 μM^-1 s^-1
Stopped-flow spectroscopic data were collected using an Applied Photophysics SX20 stopped-flow system equipped with a photodiode array detector. The system was maintained in an anaerobic chamber (O2 < 1 ppm) and all sample preparation was done anaerobically. Measurements were performed at 4 °C. All samples were prepared in a buffer containing 50 mM Tris-HCl and 100 mM NaCl, pH 8.0. RufO was prereduced with a minimal amount of sodium dithionite. The final mixed concentrations of RufO and MRYLH (where applicable) were 3.3 and 24 μM, respectively. Solutions of varying O2 concentrations were prepared by diluting air-saturated buffer with anaerobic buffer. The concentrations of O2 in the air-saturated buffer were measured with an Oxygraph+ oxygen electrode (Hansatech). To generate ^•NO-containing solutions, 0.5 mM DEA NONOate (≥98%, Cayman Chemical) was incubated in anaerobic buffer for 4 h to ensure complete ^•NO release. The ^•NO concentrations were quantified based on a hemoglobin assay, and further dilutions were made with anaerobic buffer immediately prior to mixing. Experimental data were analyzed by the ProK software package from Applied Photophysics. The second-order rate constants were obtained from linear fitting, with the resulting equations: y = 3.55x + 54.4 for the mixing of RufO with O2, y = 3.83x + 6.5 for the ES complex with O2, y = 4.12x −158.0 for RufO with ^•NO, and y = 2.35x – 58.9 for the ES complex with ^•NO.
Figure S9. Transient kinetics of ferrous RufO alone binding to O2 and •NO Spectral changes following the rapid mixing of 3.3 μM ferrous RufO with (A) 18 μM O 2 and […] superoxo intermediate and (B) a ferrous-nitrosyl complex. Insets show the time-dependent absorbance changes at 438 nm (the most pronounced shift), fitted using first-order exponential equations to determine rate constants (red trace).
(1 picture or pasted object on this page, not shown here)

RufO [5] = target: T1, RufO; assay: LC-MS of single-turnover RufO reaction with sequential O2 and •NO addition; format: biochemical; conditions: 100 μM pre-reduced RufO, 150 μM MRYLH, 150 μM O2 30 s then 150 μM •NO 30 s, 50 mM ammonium acetate pH 7.5
TxtE = target: T2, TxtE (Streptomyces scabiei, UniProt C9ZDC6); conditions: Trp-bound TxtE; reported, ref number not given; cited from earlier work
T2 sequence (C9ZDC6 1-406): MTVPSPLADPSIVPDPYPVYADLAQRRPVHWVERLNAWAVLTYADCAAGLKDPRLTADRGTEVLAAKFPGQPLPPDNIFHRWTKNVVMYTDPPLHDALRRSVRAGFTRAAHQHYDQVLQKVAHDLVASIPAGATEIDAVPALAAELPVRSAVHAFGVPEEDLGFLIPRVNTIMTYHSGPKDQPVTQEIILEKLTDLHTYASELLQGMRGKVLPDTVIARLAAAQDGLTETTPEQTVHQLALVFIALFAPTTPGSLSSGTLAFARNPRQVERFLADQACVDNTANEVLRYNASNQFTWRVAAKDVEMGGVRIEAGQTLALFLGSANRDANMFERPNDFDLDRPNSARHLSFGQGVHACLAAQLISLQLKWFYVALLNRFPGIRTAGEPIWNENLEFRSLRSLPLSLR

RufO [6] = target: T1, RufO; conditions: recent report, ref number not given; cited from earlier work
From the text: The integration of spectroscopic and structural characterization allows us to elucidate the molecular mechanism of substrate recognition and nitration activity in RufO. Our findings provide important insights into the catalytic process, enabling us to propose a mechanistic model for RufO-mediated peptide nitration (Figure S13). In its resting state, RufO adopts a six-coordinate, low-spin heme configuration with a water molecule as the distal ligand. While its heme environment is spectroscopically similar to that of typical CYPs, the flexibility of the B/C loop and the F and G helices contribut ...

[7] = peptide-bound ferrous RufO + O2, 4 °C, pH 8.0

For `CCCC[C@H](N)C(=O)N[C@@H](CCCNC(=N)N)C(=O)N[C@@H](Cc1ccc(O)cc1)C(=O)N[C@@H](CC(C)C)C(=O)N[C@@H](Cc1c[nH]cn1)C(=O)O` [Nle-RYLH] (H-[Nle]RYLH-OH), the “conversion of original low-spin species to new low-spin species” value (RufO [1]) was 84%, the “conversion rate (normalized)” value (RufO [2]) was 100% and the Kd (RufO [3]) was 1600 nM.

For `N[C@@H](Cc1ccc(O)cc1)C(=O)O` [Tyr, L-tyrosine], the “binding to RufO, in words” value (RufO [4]) is listed as “unable to bind”.

For `O=O` [O2], the kobs (ferrous RufO; MRYLH-bound ferrous RufO 3.3 μM, 18 μM O2, 438 nm, single exponential, 4 °C) was 74.3 s⁻¹, the “association rate constant k1” value (ferrous RufO; MRYLH-bound, 24 μM MRYLH, 4 °C) was 3.83 μM^–1 s^–1 and the “association rate constant k1” value (ferrous RufO; RufO alone, 4 °C) was 3.55 μM^–1 s^–1. For the same compound, the “dissociation rate constant k2 (y-intercept)” value (ferrous RufO; RufO alone, 4 °C) was 54.4 s^–1, the “O2 binding faster than •NO (times)” value (ferrous RufO; in the presence of the peptide, ratio of k1) was 1.6 times and the “dissociation rate constant k2 (y-intercept)” value (ferrous RufO; peptide-bound RufO, 4 °C) was 6.5 s^–1. The “ferric-superoxo intermediate stable for up to” value (ferrous RufO; [7]) was “up to 100 s”, the “time of peak of ferric-superoxo intermediate” value (ferrous RufO; [7]) was “approximately 0.05 s” and the “product yield, O2-first vs reverse order” value (RufO [5]) was “approximately double the product yield”. For the same compound, the “k1 of O2 binding” value (TxtE) was 4.43 μM^–1 s^–1.

For MRFLH, the “nitration by RufO, in words” value (RufO [6]) is given as “RufO cannot nitrate”.
